# Tests used:
# Format in all cases: cell-based
# [1] = test system: Trichophyton metagrophytes; assay: Fungistatic endpoint in inoculated culture medium, T. metagrophytes; settings: lowest concentration preventing visible growth, Bushnell-Haas medium with dextrose 10 g/L and yeast extract 0.1 g/L, pH 7.0; for MIC: Trichophyton, read-out: Fungistatic Endpoint (ppm Range) T. metagrophytes
# Description: (§1) The microorganisms involved in these tests were Aspergillis niger, Candida albicans, Trichophyton metagrophytes, and Pichia pastoris. The various esters tested are listed in the following table together with their fungistatic endpoints.
# (§2) Fungistatic endpoints were determined by combining the compounds at several dosage levels in a culture medium which had been freshly inoculated with spores of the test organisms. Five mL aliquots were placed in sterile culture tubes. The test compounds dissolved in the appropriate solvent were added to obtain the desired concentration of the compound in the culture medium. Following incubation at suitable conditions, the presence of growth was determined visually at each concentration of the biocide. The lowest concentration of the compound preventing growth was taken as the fungistatic endpoint. Controls containing the solvent alone at the highest dosage were made to insure that no microbial inhibition was produced by the solvent.
# (§3) The culture media used in these tests was the Bushnell-Haas medium from Difco. Dextrose at 10 g/L and yeast extract at 0.1 g/L were added to obtain growth of the test organisms. The dilute solution of the Bushnell Haas media which was used in these tests contains: 0.20 g/L magnesium sulfate; 0.02 g/L calcium chloride; 1.00 g/L monopotassium phosphate; 1.00 g/L dipotassium phosphate; 1.00 g/L ammonium nitrate, and 0.05 g/L ferric chloride. The final pH of the media was 7.0±0.2 at 25° C.
# [2] = test system: Candida albicans; assay: Fungistatic endpoint in inoculated culture medium, Candida albicans; settings: lowest concentration preventing visible growth, Bushnell-Haas medium with dextrose 10 g/L and yeast extract 0.1 g/L, pH 7.0; for MIC: Candida albicans, read-out: Fungistatic Endpoint (ppm Range) Candida albicans
# Description: as §1, §2, §3
# [3] = test system: Pichia pastoris; assay: Fungistatic endpoint in inoculated culture medium, Pichia pastoris; settings: lowest concentration preventing visible growth, Bushnell-Haas medium with dextrose 10 g/L and yeast extract 0.1 g/L, pH 7.0; for MIC: Komagataella pastoris, read-out: Fungistatic Endpoint (ppm Range) Pichia. pastoris
# Description: as §1, §2, §3
# [4] = test system: Aspergillis niger; assay: Fungistatic endpoint in inoculated culture medium, Aspergillis niger; settings: lowest concentration preventing visible growth, Bushnell-Haas medium with dextrose 10 g/L and yeast extract 0.1 g/L, pH 7.0; for MIC: read-out: Fungistatic Endpoint (ppm Range) Aspergillis niger
# Description: as §1, §2, §3
SMILES,MIC [1],MIC [2],MIC [3],MIC [4],also measured
"CC(=O)OCC(C#N)c1cc(OC(F)F)ccc1Cl (stereo not drawn) [Example 5, 3-acetoxy-2-(2-chloro-5-(difluoromethoxy)phenyl)propanenitrile]",< 16 µg/mL,< 16 µg/mL,,,
"CC(=O)OCC(C#N)c1cc(Cl)ccc1Cl (stereo not drawn) [Example 6, 3-acetoxy-2-(2,5-dichlorophenyl)propanenitrile]",< 16 µg/mL,< 16 µg/mL,,,
"CC(=O)OCC(C#N)c1cc(Cl)ccc1OC(F)F (stereo not drawn) [Example 7, 3-acetoxy-2-(5-chloro-2-(difluoromethoxy)phenyl)propanenitrile]",32 µg/mL,32 µg/mL,32 µg/mL,,
"CC(=O)OCC(C#N)c1ccc(Cl)cc1Cl (stereo not drawn) [Example 8, 3-acetoxy-2-(2,4-dichlorophenyl)propanenitrile]",16 to 32 µg/mL,16 µg/mL,< 16 µg/mL,,
"CC(=O)OCC(C#N)c1ccccc1C(F)(F)F (stereo not drawn) [Example 10, 3-acetoxy-2-(2-(trifluoromethyl)phenyl)propanenitrile]",> 64 µg/mL,> 64 µg/mL,> 64 µg/mL,128 to 256 µg/mL,
"CC(=O)OCC(C#N)c1ccc(Cl)cc1C (stereo not drawn) [Example 12, 3-acetoxy-2-(4-chloro-2-methylphenyl)propanenitrile]",> 64 µg/mL,> 64 µg/mL,> 64 µg/mL,64 to 128 µg/mL,
"CC(=O)OCC(C#N)c1ccccc1Cl (stereo not drawn) [Example 14, 3-acetoxy-2-(2-chlorophenyl)propanenitrile]",32 µg/mL,16 µg/mL,16 µg/mL,,
"CC(=O)OCC(C#N)c1ccc(Cl)cc1 (stereo not drawn) [Example 16, 3-acetoxy-2-(4chlorophenyl)propanenitrile]",< 16 µg/mL,< 16 µg/mL,< 16 µg/mL,,
"CC(=O)OC(C)C(C#N)c1ccc(Cl)cc1 (stereo not drawn) [Example 19, 3-acetoxy-2-(4-chlorophenyl)butanenitrile]",32 to 64 µg/mL,16 to 32 µg/mL,16 µg/mL,,
"COCC(OC(C)=O)C(C#N)c1ccc(Cl)cc1 (stereo not drawn) [Example 20, 3-acetoxy-2-(4-chlorophenyl)-4-methoxybutanenitrile]",,,,64 to 128 µg/mL,
"CC(=O)OCC(C#N)c1ccc(C)cc1 (stereo not drawn) [Example 21, 3-acetoxy-2-(4-methylphenyl)propanenitrile]",,,,64 µg/mL,
"CC(=O)OC(C)C(C#N)c1ccc(C)cc1 (stereo not drawn) [Example 22, 3-acetoxy-2-(4-methylphenyl)butanenitrile]",,,,128 to 256 µg/mL,
"COCC(OC(C)=O)C(C#N)c1ccc(C)cc1 (stereo not drawn) [Example 23, 3-acetoxy-2-(4-methylphenyl)-4methoxybutanenitride]",,,,,Fungistatic Endpoint (ppm Range) Aspergillis niger [4]: 128-256 ppm
"COc1ccc(C(C#N)COC(C)=O)cc1 (stereo not drawn) [Example 24, 3-acetoxy-2-(4-methoxyphenyl)propanenitrile]",,,,128 µg/mL,
"COc1ccc(C(C#N)C(C)OC(C)=O)cc1 (stereo not drawn) [Example 25, 3-acetoxy-2-(4-methoxyphenyl)butanentrile]",,,,,Fungistatic Endpoint (ppm Range) Aspergillis niger [4]: 128-256 ppm
"COCC(OC(C)=O)C(C#N)c1ccc(OC)cc1 (stereo not drawn) [Example 26, 3-acetoxy-2-(4-methoxyphenyl)-4-methoxybutanenitrile]",,,,128 to 256 µg/mL,
"CCOC(=O)C(OC(C)=O)C(C#N)c1ccc(Cl)cc1 (stereo not drawn) [Example 28, ethyl 2-acetoxy-3-(4-chlorophenyl)-3-cyanopropanoate]",,,,128 µg/mL,
"N#CC(COC=O)c1cc(OC(F)F)ccc1Cl (stereo not drawn) [Example 29, 2-(2-chloro-5-(difluoromethoxy)phenyl)-3-(formyloxy)propanenitrile]",< 16 µg/mL,< 16 µg/mL,,< 16 µg/mL,
"N#CC(COC=O)c1cc(Cl)ccc1Cl (stereo not drawn) [Example 30, 2-(2,5-dichlorophenyl)-3-(formyloxy)propanenitrile]",< 16 µg/mL,< 16 µg/mL,,< 16 µg/mL,
N#CC(COC(=O)Cc1ccccc1)c1cc(OC(F)F)ccc1Cl (stereo not drawn) [Example 31],,,,,Fungistatic Endpoint (ppm Range) T. metagrophytes [1]: <16 ppm; Fungistatic Endpoint (ppm Range) Pichia. pastoris [3]: 64 ppm; Fungistatic Endpoint (ppm Range) Candida albicans [2]: >64 ppm
"CC(=O)OCC(C#N)c1ccccc1 (stereo not drawn) [Example 32, 3-acetoxy-2-phenylpropanenitrile]",16 µg/mL,> 64 µg/mL,16 to 32 µg/mL,,
CC(=O)OCC(C#N)c1cccc(Oc2ccccc2)c1 (stereo not drawn) [Example 33],,,,,Fungistatic Endpoint (ppm Range) Aspergillis niger [4]: 128-256 ppm

# Source: patent US20100022640A1, “ESTERS OF 2-[…] AND ANTIFUNGAL COMPOSITIONS CONTAINING THEM” (priority 2006, published 2010)
